Values quoted from earlier work in US7374751B1, “QS-21 and IL-12 as an adjuvant combination” (Wyeth Holdings Corporation, priority 2001, dated 2008).

Conditions: clinical data, F/QS-21 formulation, immediately after injection

For QS-21, the local acute toxicity is given as “associated with local acute toxicity immediately after injection”.
